The results in this text go back to publication PMC11476552, “Synthesis and Preliminary Studies for In Vitro Biological Activity of Two New Water-Soluble Bis(thio)carbohydrazones and Their Copper(II) and Zinc(II) Complexes” (International Journal of Molecular Sciences, 2024).

Structures are written as SMILES. Like-named read-outs stand apart in the source and are kept apart here.

Series [1] can be described thus: Solubility of the ligands and complexes in water. The following applies: for solubility: r.t. It counts as physicochemical. The text has this: Elemental (see experimental section) and TGA (Figure S5) analyses confirmed the formulae Na2H4L^1∙5.5H2O (bis-TCH) and Na2H4L^2∙5H2O (bis-CH).
A short description of series [2]: Proton dissociation constants by UV-visible spectrophotometry. Format: physicochemical. The following applies: aqueous buffer solutions. The text has this: The proton dissociation constants of Na2H4L^1·5.5 H2O (bis-TCH) were studied by registering the UV–visible spectra in aqueous solution between pH 3.98 and 10.00 (Figure 1A).
Between pH = 3.98 and 6.00, the solutions were colourless with absorption maxima at 237 and 320 nm. From pH = 6.49, the solution was pale green, and the colour became more intense until pH = 10.00; the colour change was accompanied by the appearance of bands at 253 and 393 nm, with a shoulder at 445 nm. […] This value is similar to that reported for the deprotonation of the phenolic moiety of sodium 5-sulfonate-salicylaldehyde thiosemicarbazones. The values of pKa1 and pKa2, associated with the proton dissociation of the sulfonic groups, are expected to have much lower values (below 3) and could not be determined from these experiments. Potentiometric titrations were performed in an attempt to determine the value of the pKa of the hydrazidic NH protons (pKa5 and pKa6) and, possibly, those of the protonated sulfonate groups. Effectively, potentiometric data allowed us to determine the pKa5 value, along with pKa3 and pKa4 (Table 2). The values of pKa3 and pKa4 obtained by potentiometry are consistent with those obtained by spectrophotometric titrations.
Similarly, the proton dissociation constants of bis-CH were studied spectrophotometrically in aqueous solution between pH = 3.98 and 10.00 (Figure 1B). […] The spectrophotometric data were processed by means of HypSpec2014 software, leading to pKa3 = 7.34(1) and pKa4 = 8.58(1), which were assigned to the deprotonation of the two phenolic OH groups (Table 2). As for bis-TCH, the single-site pKa value of the phenolic groups can be estimated as the average pKa (7.96). Additionally, to complete the analysis, we carried out potentiometric titrations of bis-CH starting from a very acidic pH. […] Importantly, no dissociation of the hydrazidic NH groups was observed, a behaviour consistent with that reported in the literature.
The UV–visible spectra were collected using a Thermo Scientific Evolution 260 Bio spectrophotometer equipped with a Peltier temperature controller. Aqueous buffer stock solutions (50 mM) were prepared as follows: acetate buffer solutions (pH = 3.98, 4.62, and 5.00) were prepared by mixing appropriate volumes of AcOH 50 mM and AcONa·3H2O 50 mM solutions. MES (pH = 5.51, 6.00, and 6.49), HEPES (pH = 7.00, 7.48, and 8.01) and CHES (pH = 8.62, 9.01, 9.51, and 10.00) buffer solutions were obtained by suspending appropriate amounts of solid MES/HEPES/CHES in water, adding aqueous NaOH 100 mM until the desired pH was reached. The pH was measured using a Crison Basic 20 pH meter connected with a Hamilton glass electrode. Calibration of the glass electrode was carried out daily. All solutions were prepared using double-distilled water. For all the solutions, the ionic strength was 0.1 M NaCl.
Samples used for the study of protonation equilibria of the ligands were prepared as follows. […] For each solution, the absorption spectrum was collected in the 220–600 nm range at 298.2 K. The spectral data collection was carried out immediately after the preparation of the samples and repeated after 3 and 10 min for all the samples at different pH values to check the stability of the ligand. […] The complex formation equilibria at pH 2.5 or 7.4 of bis-TCH and bis-CH with Cu(II) and Zn(II) ions were studied by direct spectrophotometric titrations of solutions of the ligands with the metal ions, and the samples were prepared as follows. Appropriate aliquots of the stock solutions of the ligands were diluted in a quartz cuvette of 1 cm path length using HEPES buffer (pH 7.4) or by adding HCl aqueous solution (pH 2.5) to obtain ca. 17 µM ligand solutions in a total volume of 2.6 mL. […]

The subject of another series is Hs27 cells. The experiment in a line: Antiproliferative activity, trypan blue cell count, Hs27. Format: cell-based. The following applies: Hs27, up to 100 µg/mL, 24-72 h. The method, then: We have started to investigate the antiproliferative profile of the ligands and of the complexes C1–C4 using a normal fibroblast cell line (Hs27) and a leukaemia cell line (U937), an in vitro cell model system systematically used to validate the toxicological profile of new potential anticancer agents. For the cytotoxicity assay, we treated Hs27 and U937 cells with five different concentrations of compound, ranging from 12.5 to 100 µg/mL, for 24, 48, and 72 h.
U937 cells (ATCC, CRL-1593.2) were obtained from the American Tissue Culture Collection (Rockville, MD, USA) and were cultured in Roswell Park Memorial Institute Medium (RPMI-1640) (Euroclone, Italy); Hs27 cells (ATCC, CRL1634) were grown in DMEM. Both media were supplemented with 10% (v/v) foetal bovine serum (Euroclone, Italy), 1% L-glutamine (2 mM) (Euroclone, Italy), and 1% penicillin (100 U/mL)/streptomycin (100 µg/mL) (Euroclone, Italy), added with 10% (v/v) foetal bovine serum (Euroclone, Italy), 1% L-glutamine (2 mM) (Euroclone, Italy), and 1% penicillin (100 U/mL)/streptomycin (100 µg/mL) (Euroclone, Italy). Flasks were maintained at 37 °C and 5% CO2 in a humidified atmosphere. […]
The antiproliferative activity of the ligands and the complexes C1–C4 was evaluated in vitro on U937 and Hs27 cell lines. […] Values are reported as the mean of the GI50 calculated on two independent experiments.

The mark [3] stands for this setting: UV-visible spectrophotometry, aqueous solution, T = 298.2 K, phenolic group, read-out: pKa3.
[4] abbreviates: UV-visible spectrophotometry, aqueous solution, T = 298.2 K, phenolic group, read-out: pKa4.
[5] abbreviates: average of spectrophotometric pKa3 and pKa4, read-out: single-site pKa value of the phenolic groups (average pKa).

On to `COc1cc(S(=O)(=O)[O-])cc(/C=N/NC(=O)N/N=C/c2cc(S(=O)(=O)[O-])cc(OC)c2O)c1O.[Na+].[Na+]` [bis-CH, Bis-(sodium 3-methoxy-5-sulfonate-salicylaldehyde)-carbohydrazone], for which the “solubility in water (in words)” value in series [1] is “very soluble in water”. The solubility in series [1] was approximately 23 mg/mL. The pKa in series [2] (setting [3]) amounted to 7.34; in series [2] (setting [4]), 8.58; in series [2] (setting [5]), 7.96. The “cytotoxic effect (in words)” value with Hs27 cells is “did not produce a reduction in cell viability”.

Take `COc1cc(S(=O)(=O)[O-])cc(/C=N/NC(=S)N/N=C/c2cc(S(=O)(=O)[O-])cc(OC)c2O)c1O.[Na+].[Na+]` [bis-TCH, Bis-(sodium 3-methoxy-5-sulfonate-salicylaldehyde)-thiocarbohydrazone]: the “solubility in water (in words)” value in series [1] is “very soluble in water”. Further, in series [1], the solubility is approximately 10 mg/mL. Further, the pKa in series [2] (setting [3]) amounted to 6.78; in series [2] (setting [4]) it was 8.77; in series [2] (setting [5]) it was 7.78.

Broadly, the solubility is how much of the substance goes into solution per volume. Low values mean little dissolved substance, high ones much dissolved substance.
